According to article PMC9508125, “The evolutionary advantage of an aromatic clamp in plant family 3 glycoside exo-hydrolases” (Nature Communications, 2022):
Changes are numbered by the printed parent chain.

What was measured:
Experiment in all cases: Relative rates of hydrolysis of poly-, oligosaccharides and aryl-glycosides
Format in all cases: biochemical
Details in all cases: substance is the substrate, nd = activity not detected
HvExoI W286Y mutant = target: T1, HvExoI W286Y mutant (Hordeum vulgare, UniProt Q9XEI3, W311Y)
T1 sequence (Q9XEI3 26-630 W311Y): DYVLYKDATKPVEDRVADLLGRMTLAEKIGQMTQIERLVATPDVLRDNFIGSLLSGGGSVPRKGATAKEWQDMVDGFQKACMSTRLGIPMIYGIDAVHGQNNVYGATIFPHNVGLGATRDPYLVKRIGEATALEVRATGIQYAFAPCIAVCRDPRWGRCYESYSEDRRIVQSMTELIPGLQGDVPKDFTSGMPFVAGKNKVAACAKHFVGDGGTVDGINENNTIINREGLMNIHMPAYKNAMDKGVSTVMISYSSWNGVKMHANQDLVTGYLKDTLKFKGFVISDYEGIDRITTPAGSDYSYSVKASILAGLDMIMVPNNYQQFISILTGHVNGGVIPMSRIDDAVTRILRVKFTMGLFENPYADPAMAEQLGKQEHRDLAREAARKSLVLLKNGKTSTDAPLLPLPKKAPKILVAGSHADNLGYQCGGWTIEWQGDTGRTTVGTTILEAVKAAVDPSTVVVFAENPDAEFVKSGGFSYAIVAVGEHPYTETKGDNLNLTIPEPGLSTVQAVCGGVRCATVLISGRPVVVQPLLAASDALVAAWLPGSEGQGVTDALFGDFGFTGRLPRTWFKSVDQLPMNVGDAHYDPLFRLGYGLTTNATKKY
Experimental: (§1) Dependency of activities of WT and mutant HvExoI on pH (McIlvaine buffers in the pH range of 3.5–8.5 at 30 °C) and temperature (100 mM sodium acetate buffer, pH 5.25, temperature range 0–80 °C, 15 min incubations) were determined using 0.2% (w/v) 4NP-Glc[21],[59]. Relative rates of hydrolysis of β-linked poly-, oligosaccharides, and aryl-glucosides were determined using near-homogenous HvExoI at 50 pmoles. […] Kinetic parameters were calculated from the analyses of Michaelis-Menten plots with Grafit 7.0.3[62] and processed by a proportional weighted fit, using nonlinear regression. The relative rates of hydrolysis, kinetic, and inhibition data were rounded to one or two decimal points (Supplementary Tables 2–4).

HvExoI W434F mutant = target: T2, HvExoI W434F mutant (Hordeum vulgare, UniProt Q9XEI3, W459F)
T2 sequence (Q9XEI3 26-630 W459F): T1 sequence (Q9XEI3 26-630 W311Y) with Y286W, W434F
Experimental: as §1

[1] = target: T3, HvExoI W286F/W434F mutant (Hordeum vulgare, UniProt Q9XEI3, W311F/W459F)
T3 sequence (Q9XEI3 26-630 W311F/W459F): T1 sequence (Q9XEI3 26-630 W311Y) with Y286F, W434F
Experimental: as §1

[2] = target: T4, HvExoI W286F/W434A mutant (Hordeum vulgare, UniProt Q9XEI3, W311F/W459A)
T4 sequence (Q9XEI3 26-630 W311F/W459A): T1 sequence (Q9XEI3 26-630 W311Y) with Y286F, W434A
Experimental: as §1

Compound	Activity (relative rate of hydrolysis) (HvExoI W286Y mutant) [μmole/min per mg protein]	Activity (relative rate of hydrolysis) (HvExoI W434F mutant) [μmole/min per mg protein]	Activity (relative rate of hydrolysis) [1] [μmole/min per mg protein]	Activity (relative rate of hydrolysis) [2] [μmole/min per mg protein]
OC[C@H]1O[C@@H](O[C@@H]2[C@@H](O)[C@H](O[C@H]3[C@H](O)[C@@H](CO)OC(O)[C@@H]3O)O[C@H](CO)[C@H]2O)[C@H](O)[C@@H](O)[C@@H]1O (some centres unmarked) [Laminaritriose]	14.1 ± 0.4	18.4 ± 1.4	0.5 ± 0.04	0.1 ± 0.002
OC[C@H]1O[C@@H](O[C@H]2C(O)O[C@H](CO)[C@@H](O)[C@@H]2O)[C@H](O)[C@@H](O)[C@@H]1O (some centres unmarked) [Sophorose]	12.5 ± 0.2	6.6 ± 0.4	0.3 ± 0.03	0.02 ± 0.001
Cellobiose	3.2 ± 0.1	0.4 ± 0.1	0.01 ± 0.001	0.01 ± 0.001
Gentiobiose	7.6 ± 0.8	1.2 ± 0.3	0.01 ± 0.001	0.002 ± 0.0002
laminarin	14.2 ± 1.3	7.8 ± 0.4	0.2 ± 0.01	0.1 ± 0.003
